Assay results reported in patent US20110039770A1, “INHIBITORS OF PROTEIN KINASE C ISOFORMS AND USES THEREOF” (PHARMAGAP INC., priority 2005, published 2011).
Values belong to the molecule of their own block, whether it stands above or below them. Where a SMILES comes first, the peptide text is derived from it. The star is where a group is joined. PNA(A) = NCCN(CC(=O)*)C(=O)Cn1cnc2c(N)ncnc21

Experiments:
[1] = biological target: T1, PKC-α (Rattus norvegicus, UniProt P05696); experiment: Competition of PRE with PKC-α antibody binding on Western blot, Protocol A, C6Cx43 lysate; details: C6Cx43 cells
T1 construct: C6Cx43 cells (rat glioma transfected cells overexpressing connexin 43); endogenous in cells; host or cells: C6Cx43 rat glioma cells (transfected with connexin 43, not with PKC)
Protocol: The ability of the PRE 1, 2 and 3 (see Table 3 above) to interfere with the binding of a PKC-α-specific polyclonal antibody to PKC-α was determined using the following protocol.
Cell lysates from either IMR-32 (human neuroblastoma) cells or C6Cx43 cells (rat glioma transfected cells overexpressing connexin 43) were obtained using standard protocols and the proteins of the lysate were separated by SDS PAGE electrophoresis and electrotransferred onto a nitrocellulose membrane. The membrane was incubated for 30 minutes in blocking buffer (TBST) containing the test peptide at either 5× or 20× the concentrations of the primary antibody. A primary polyclonal antibody specific for PKC-α (Santa Cruz Biotechnology, Inc., CA) was then added (15 μg/ml) and the membrane incubated for a further 45 minutes. Finally, the primary antibody was detected with a secondary antibody conjugated to alkaline phosphatase using standard procedures. The intensity of the band corresponding to PKC-α was assessed by scanning and densitometry using the Gel-Pro software (Media Cybernetics) to obtain relative band intensities (average of 3 replicas). Control assays were conducted as described above except that blocking buffer without peptide was used.
The results are expressed as relative band intensity and as a percentage of the intensity of the corresponding band in the control assay (“Relative intensity (%)”). “% inhibition” relates to the percentage of the PKC-α band that is inaccessible to the antibody.

[2] = Acute toxicity studies in mice (IV, topical, oral); assay type: in vivo, mouse
Protocol: Acute toxicity studies were performed on mice using three different delivery routes: IV (tail), topical and oral. […] The LD50 obtained from the IV study was determined to be 750 μg-1 mg per mouse. The “no observed adverse effect level” was determined to be 250 μg per mouse, approximately twice the concentration of TIM 10 provided to mice in the studies discussed above.

[3] = biological target: PKC beta 1 (Homo sapiens, UniProt P05771); experiment: PKC isoform protein levels in cancer cell lines after TIM 10 (Western blot); assay type: cell-based; parameters: endogenous in cells; details: 5 mM by pinocytic influx, 24 hrs
Chain of PKC beta 1 (P05771 whole entry, canonical isoform): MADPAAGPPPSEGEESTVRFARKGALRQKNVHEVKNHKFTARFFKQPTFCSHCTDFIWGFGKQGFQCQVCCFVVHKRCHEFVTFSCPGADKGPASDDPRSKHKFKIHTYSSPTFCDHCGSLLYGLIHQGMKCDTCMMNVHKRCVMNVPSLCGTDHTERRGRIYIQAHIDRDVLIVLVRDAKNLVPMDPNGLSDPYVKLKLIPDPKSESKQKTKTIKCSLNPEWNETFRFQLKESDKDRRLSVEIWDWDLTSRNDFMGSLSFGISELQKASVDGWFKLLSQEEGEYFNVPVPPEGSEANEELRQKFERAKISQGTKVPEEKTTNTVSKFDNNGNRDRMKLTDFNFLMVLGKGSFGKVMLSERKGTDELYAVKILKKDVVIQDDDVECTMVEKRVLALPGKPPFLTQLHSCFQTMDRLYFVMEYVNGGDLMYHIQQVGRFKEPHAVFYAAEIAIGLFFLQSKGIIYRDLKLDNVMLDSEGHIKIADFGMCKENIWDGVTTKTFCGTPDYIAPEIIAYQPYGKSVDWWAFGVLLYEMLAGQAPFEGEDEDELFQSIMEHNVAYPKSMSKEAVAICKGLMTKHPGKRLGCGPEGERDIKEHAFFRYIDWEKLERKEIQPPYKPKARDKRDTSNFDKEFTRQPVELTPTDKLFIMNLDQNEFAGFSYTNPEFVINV
Protocol: (§1) The effect of compound TIM 10 on the levels of protein for various PKC isoforms was assessed as generally described below in the following human cancer cell lines: MDA MB-231 breast adenocarcinoma cells (ATCC HTB-26); T24 bladder transitional cell carcinoma (ATCC HTB-4); SKOV-3 ovary adenocarcinoma (ATCC HTB-77); MCF-7 breast adenocarcinoma (ATCC HTB-22); Capan-2 pancreatic adenocarcinoma (ATCC HTB-80); NCI-H661 NSCL large cells (ATCC HTB-183); Calu-6 probable lung anaplastic carcinoma (ATCC HTB-56) and Calu-3 lung adenocarcinoma (ATCC HTB-55).
(§2) Cells representative of the different cancer types were cultured according to ATCC instructions. At subconfluence, the cells were trypsinized and compound 10 (5 mM) was incorporated into the cells by pinocytic influx endocytosis according to the manufacturer's instructions (Molecular Probe). Matching controls were treated accordingly except that vehicle was incorporated instead of compound 10. Following pinocytic influx, the cells were seeded and allowed to grow in fresh medium for 24 hrs. The cell cultures were further extracted using RIPA lysis buffer according to standard protocol. The protein content of each lysate was measured using Bradford protein estimation procedure (BioRad) and normalized. Following addition of sample buffer, the proteins from 15 μl of each extract were separated by electrophoresis, electro-transferred to nitrocellulose membranes and the various isoforms of PKC were detected using appropriate antibodies (Santa Cruz Biotechnology, Inc., CA). The relative intensity of bands of the expected molecular weight was estimated after scanning and the % decrease in the band intensity relative to control was calculated.

[4] = biological target: PKC delta (Homo sapiens, UniProt Q05655); experiment: as above; assay type: cell-based; parameters: endogenous in cells; details: 5 mM by pinocytic influx, 24 hrs
Chain of PKC delta (Q05655 whole entry): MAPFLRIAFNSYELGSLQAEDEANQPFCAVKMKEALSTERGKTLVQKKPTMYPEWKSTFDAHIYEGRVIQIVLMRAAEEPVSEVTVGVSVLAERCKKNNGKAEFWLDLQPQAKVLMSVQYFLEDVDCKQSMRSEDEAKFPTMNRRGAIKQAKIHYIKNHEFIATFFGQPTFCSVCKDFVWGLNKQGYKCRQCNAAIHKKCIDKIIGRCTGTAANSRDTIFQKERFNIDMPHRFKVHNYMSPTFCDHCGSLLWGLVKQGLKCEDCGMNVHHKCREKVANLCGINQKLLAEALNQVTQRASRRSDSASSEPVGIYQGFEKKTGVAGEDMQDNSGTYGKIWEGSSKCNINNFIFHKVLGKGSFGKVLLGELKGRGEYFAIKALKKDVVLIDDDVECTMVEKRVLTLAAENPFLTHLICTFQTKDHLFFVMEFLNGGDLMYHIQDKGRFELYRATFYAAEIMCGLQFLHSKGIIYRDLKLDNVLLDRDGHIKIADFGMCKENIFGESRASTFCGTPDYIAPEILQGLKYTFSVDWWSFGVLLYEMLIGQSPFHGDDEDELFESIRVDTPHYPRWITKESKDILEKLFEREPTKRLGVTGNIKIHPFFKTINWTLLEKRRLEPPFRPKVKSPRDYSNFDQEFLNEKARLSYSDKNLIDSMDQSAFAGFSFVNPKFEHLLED
Protocol: as §1, §2

[5] = biological target: T2, PKC epsilon (Homo sapiens, UniProt Q02156); experiment: as above; assay type: cell-based; parameters: endogenous in cells; details: 5 mM by pinocytic influx, 24 hrs
T2 sequence (Q02156 1-737): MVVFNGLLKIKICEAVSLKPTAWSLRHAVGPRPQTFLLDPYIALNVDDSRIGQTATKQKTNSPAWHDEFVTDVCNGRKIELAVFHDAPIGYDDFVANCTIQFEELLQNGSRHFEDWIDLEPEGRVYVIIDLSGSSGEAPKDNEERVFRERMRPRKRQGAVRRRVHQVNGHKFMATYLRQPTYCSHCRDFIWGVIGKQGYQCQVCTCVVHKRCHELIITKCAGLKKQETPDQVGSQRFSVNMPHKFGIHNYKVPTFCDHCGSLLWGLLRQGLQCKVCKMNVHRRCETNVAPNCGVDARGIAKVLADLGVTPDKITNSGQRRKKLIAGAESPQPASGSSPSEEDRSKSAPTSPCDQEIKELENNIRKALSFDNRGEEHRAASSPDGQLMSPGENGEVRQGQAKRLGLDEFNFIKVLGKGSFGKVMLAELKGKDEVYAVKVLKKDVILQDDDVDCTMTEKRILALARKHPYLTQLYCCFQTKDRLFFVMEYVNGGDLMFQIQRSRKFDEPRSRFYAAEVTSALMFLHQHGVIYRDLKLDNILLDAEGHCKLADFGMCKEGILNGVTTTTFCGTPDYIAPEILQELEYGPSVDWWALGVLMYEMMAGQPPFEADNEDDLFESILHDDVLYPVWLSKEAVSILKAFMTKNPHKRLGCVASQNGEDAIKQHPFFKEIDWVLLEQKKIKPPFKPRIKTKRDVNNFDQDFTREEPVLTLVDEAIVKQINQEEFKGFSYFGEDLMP
Protocol: as §1, §2

[6] = test system: peripheral blood lymphocytes; experiment: Peripheral blood lymphocyte survival and blastogenic response to mitogens; assay type: cell-based; details: primary lymphocytes of pigs, mice and human
[7] = test system: CCD-16Lu normal immortalized human lung fibroblasts; experiment: Proliferation of normal lung cells (protocol of Example 14); assay type: cell-based

- Band Intensity ([1]; 75 μg): 0.909
- Band Intensity ([1]; 300 μg): 0.888
- Band Intensity ([1]; 600 μg): 0.889
- Band Intensity ([1]; 3.75 mg): 0.603
- Band Intensity ([1]; 5.25 mg): 0.599
- Band Intensity ([1]; 7.5 mg): 0.589
SMILES: CC[C@H](C)[C@H](NC(=O)[C@H](CO)NC(=O)[C@@H](NC(=O)CNC(=O)[C@@H](NC(=O)[C@H](CC(C)C)NC(=O)[C@H](CC(N)=O)NC(=O)[C@H](CCC(N)=O)NC(=O)[C@H](C)NC(=O)[C@H](CC(=O)O)NC(=O)CNC(=O)CNC(=O)[C@H](CCCCN)NC(=O)[C@@H](NC(=O)[C@H](CCC(=O)O)NC(=O)[C@H](CCC(N)=O)NC(=O)[C@@H](NC(=O)CNC(=O)[C@H](CCCCN)NC(=O)[C@H](C)NC(C)=O)[C@@H](C)CC)C(C)C)[C@@H](C)CC)[C@@H](C)CC)C(N)=O [PRE 3] (Ac-AKGIQEVKGGDAQNLIGISI-NH2)

SMILES: CC[C@H](C)[C@H](NC(=O)[C@H](CO)NC(=O)[C@@H](NC(=O)CNC(=O)[C@@H](NC(=O)[C@H](CC(C)C)NC(=O)[C@H](CC(N)=O)NC(=O)[C@H](CCC(N)=O)NC(=O)[C@H](C)NC(=O)[C@H](CC(=O)O)NC(=O)[C@H](CCCCN)NC(=O)CNC(=O)CNC(=O)CNC(=O)CNC(=O)CNC(=O)CNC(=O)CNC(=O)[C@H](CC(C)C)NC(=O)[C@H](CCCNC(=N)N)NC(=O)[C@H](Cc1ccccc1)NC(=O)[C@H](CCCCNC(=O)CN(CCN)C(=O)Cn1cnc2c(N)ncnc21)NC(=O)[C@H](CCCNC(=N)N)NC(=O)[C@H](CCCNC(=N)N)NC(=O)[C@H](Cc1ccccc1)NC(C)=O)[C@@H](C)CC)[C@@H](C)CC)C(N)=O [TIM 10] (Ac-FRRK(PNA(A))FRLGGGGGGGKDAQNLIGISI-NH2)
- no observed adverse effect level ([2]; IV study): 250 μg per mouse
- toxic effects ([2]; topically or orally): No toxic effects were observed at any dose
- % decrease PKC-βI band intensity relative to control ([3]; Capan-2): 17.5%
- % decrease PKC-βI band intensity relative to control ([3]; H661): 3.0%
- % decrease PKC-βI band intensity relative to control ([3]; MCF-7): 0.0%
- % decrease PKC-βI band intensity relative to control ([3]; MDA-MB231): 0.0%
- % decrease PKC-δ band intensity relative to control ([4]; Calu-3): 22.2%
- % decrease PKC-δ band intensity relative to control ([4]; Calu-6): 18.9%
- % decrease PKC-δ band intensity relative to control ([4]; Capan-2): 53.3%
- % decrease PKC-δ band intensity relative to control ([4]; H661): 0.0%
- % decrease PKC-δ band intensity relative to control ([4]; MCF-7): 21.5%
- % decrease PKC-δ band intensity relative to control ([4]; MDA-MB231): 36.6%
- % decrease PKC-δ band intensity relative to control ([4]; SK-OV-3): 0.0%
- % decrease PKC-δ band intensity relative to control ([4]; T24): 62.2%
- % decrease PKC-ε band intensity relative to control ([5]; Capan-2): 0.0%
- % decrease PKC-ε band intensity relative to control ([5]; MCF-7): 0.0%
- % decrease PKC-ε band intensity relative to control ([5]; MDA-MB231): 0.0%
- apoptosis of peripheral blood lymphocytes [6]: do not induce apoptosis
- blastogenic response to mitogens [6]: do not drastically limit the blastogenic response
- effect on normal lung cells relative to H661 [7]: less affected
